Experiments:
[1] = tested on: PAR1−/− cortical neurons on wild-type astrocyte monolayer; assay: PAR1−/− cortical neurons co-cultured on wild-type astrocytes: dendritic Ca2+ and voltage clamp; format: cell-based, mouse
Procedure: For an astrocyte-neuron co-culture, a monolayer of wild-type astrocytes was grown to 70-100% confluency (7-14 days in culture). Subsequently, the cortex from a P0 to P5 PAR1−/− mouse (Connolly et al., 1996) was dissected free of meninges and digested for 30 min in 1 mg/ml trypsin at 37° C. PAR1−/− mice were >99% C57B1/6 (>7 backcrossings), and wild-type mice were from a colony derived from PAR1−/− littermates.
All experiments were done within 3 generations of establishing the homozygous colony. The cortical cells were plated at low density on top of the monolayer of wild-type astrocytes obtained in above Example 1.1. Neurons were used for Ca^2+ imaging after 1-5 days in culture.
Whole-cell perforated-patch recording from cultured cortical neurons or HEK cells under voltage clamp (holding potential −60 mV) was made with an Axopatch 200B amplifier (Axon Instruments, Union City, Calif.). The recording chamber was continually perfused with a recording solution comprised of 150 mM NaCl, 3 mM KCl, 2 mM CaCl2, 5.5 mM glucose, and 10 mM HEPES (pH 7.4 by NaOH; osmolality adjusted to 315-320 mOsm with sucrose). Recording electrodes (4-7 MΩ) were filled with (in mM) 150 mM CsMeSO4, 10 mM NaCl, 0.5 CaCl2, 10 mM HEPES, and 25-50 μg/ml gramicidin D (pH adjusted to 7.3 with CsOH and osmolality adjusted to 310 mOsm with sucrose). It took 20-30 min to achieve acceptable perforation with series resistance ranging from 30-60 MΩ. All electrophysiological data from cultured neurons cells in this study were collected at room temperature (23-26° C.).
After a 20 min recovery, the bath perfusion was stopped and TFLLR was applied by brief (<1 sec) pressure ejection onto the astrocyte hosting the dye-loaded neuron in a static bath condition. Changes in fluorescence were monitored in a number of dendritic processes (schematized in FIGS. 8a and 8b).

CA1 pyramidal cells = assay: Current clamp membrane potential of CA1 pyramidal cells in hippocampal slices; format: cell-based, rat; conditions: APV itself
Procedure: (§1) Young rats (Sprague-Dawley, age P15-P20) or mice (C57/B16, age P14-19) were deeply anesthetized with isoflurane and decapitated. The brain was rapidly removed and submerged in an ice-cold oxygenated artificial cerebrospinal fluid (ACSF) comprised of 130 mM NaCl, 24 mM NaHCO3, 3.5 mM KCl, 1.25 mM NaH2PO4, 1 mM CaCl2,3 mM MgCl2, and 10 mM glucose saturated with 95% O2/5% CO2, at pH 7.4.
The hemisected brain was glued onto the stage of a vibrating microtome (Leica VT1000 S) and sections of 300 μm thickness were cut and stored in an incubation chamber at room temperature for about 1 h before use. For voltage clamp experiments, the solution used to fill the electrodes was comprised of 140 mM Cs-MeSO4, 10 mM HEPES, 7 mM NaCl, 4 mM Mg-ATP, and 0.3 mM Na3-GTP; the solution for current clamp recordings was comprised of 140 mM K-MeSO4, 10 mM HEPES, 7 mM NaCl, 4 mM Mg-ATP, and 0.3 mM Na3-GTP, and supplemented with 1 mM QX314; and 1 mM QX314 was omitted from some current clamp recordings (e.g., FIG. 9e).
Slices were placed on the stage of an upright microscope underneath a platinum and nylon restraining grid, and superfused with oxygenated ACSF at room temperature (23° C.), some experiments are performed at 34° C. by a temperature controller (TC-344B, Warner, Hamden). The standard ACSF recording solution was comprised of 130 mM NaCl, 24 mM NaHCO3, 3.5 mM KCl, 1.25 mM NaH2PO4, 1.5 mM CaCl2, 1.5 mM MgCl2, and 10 mM glucose saturated with 95% O2/5% CO2, at pH 7.4. For some experiments 0.5-1 μM TTX, 10 μM NBQX, or 10-20 μM bicuculline were added to the extracellular solution, extracellular Mg^2+ was reduced to 5 μM, and/or extracellular Ca^2+ raised to 2 mM.
Visually guided whole-cell patch recordings were obtained from CA1 pyramidal neurons in a voltage clamp or current clamp configuration using an Axopatch 200A (Axon Instruments) and a borosilicate patch pipette of 5-7 MΩ resistance. […] Records were filtered at 5 kHz and digitized at 20 kHz using a Digidata 1200 A/D board.
Synaptic responses were evoked by applying 0.1 ms current injection (1-100 μA) to a bipolar stimulating electrode placed in the stratum radiatum. Thrombin (Calbiochem) concentration was determined as described by Gingrich et al. (2000) using conversion of 1 U/ml=10 nM. TFLLR and thrombin were applied by gravity perfusion at 1.0 ml/min, with extensive washing of perfusion lines, chamber, and objective between experiments to remove all residual thrombin, which has been reported to irreversibly cleave and PAR1 at a pM concentration. Removal of all thrombin ensured that PAR1 receptors were not pre-cleaved by residual thrombin prior to experimentation.

synaptic NMDA receptors [2] = assay: Evoked NMDA EPSC current-voltage relationship in CA1 pyramidal cells; format: cell-based, rat; conditions: 100 μM APV
Procedure: as §1
Slices were placed on the stage of an upright microscope underneath a platinum and nylon restraining grid, and superfused with oxygenated ACSF at room temperature (23° C.), some experiments are performed at 34° C. by a temperature controller (TC-344B, Warner, Hamden). The standard ACSF recording solution was comprised of 130 mM NaCl, 24 mM NaHCO3, 3.5 mM KCl, 1.25 mM NaH2PO4, 1.5 mM CaCl2, 1.5 mM MgCl2, and 10 mM glucose saturated with 95% O2/5% CO2, at pH 7.4. […]
(§2) Synaptic responses were evoked by applying 0.1 ms current injection (1-100 μA) to a bipolar stimulating electrode placed in the stratum radiatum. Thrombin (Calbiochem) concentration was determined as described by Gingrich et al. (2000) using conversion of 1 U/ml=10 nM. […]
EPSCs were evoked by electrical stimulation of Schaffer collateral axons in the CA1 stratum radiatum, and recorded from CA1 pyramidal neurons under voltage clamp. […]

synaptic NMDA receptors [3] = assay: Miniature EPSC analysis in CA1 pyramidal cells; format: cell-based, rat; conditions: APV 50 μM
Excerpt: Miniature EPSCs (mEPSCs) were digitized at 10 KHz and the records were filtered with a digital Gaussian filter (−3 dB) with a cutoff frequency of 1 kHz. The mEPSCs were automatically detected and grouped based on an amplitude threshold of 10 pA and a rise time between 0 to 5 (fast rise time) and 5 to 10 ms (slow rise time); a small number of apparent mEPSCs with rise times slower than 10 ms were not studied further. Selected mEPSCs were scaled, averaged, and fitted with a sum of two exponential functions,
Response Amplitude(t)=Amplitude1exp(−time/τ1)+Amplitude2exp(−time/τ2).
If the first decay constant (τ1) and the second decay constant (τ2) were within 10%, the curve was subsequently refitted with a single exponential function. Both the frequency and the peak amplitude of detected events were analyzed. […] All data were acquired, stored, and analyzed using pClamp 8 (Axon Instruments, Foster City, Calif.) and Mini Analysis Program (Synaptosoft). […]
To investigate the effects of PAR1 activation on synaptic NMDA receptors in normal concentrations of Mg^2+ (1.5 mM), the inventors recorded spontaneous miniature excitatory postsynaptic currents (mEPSCs) at −60 mV in the presence of 0.5 μM TTX to look for changes in the amplitude and decay kinetics of individual synaptic currents.

[4] = tested on: NMDA receptor-mediated component of the EPSP; assay: Current clamp EPSP recording in CA1 pyramidal cells; format: cell-based, rat; conditions: 50 μM APV
Procedure: as §1
The hemisected brain was glued onto the stage of a vibrating microtome (Leica VT1000 S) and sections of 300 μm thickness were cut and stored in an incubation chamber at room temperature for about 1 h before use. […]
as §2
A series of current clamp experiments were carried out to directly measure the effects of PAR1 activation on the NMDA receptor-mediated component of the EPSP recorded in the presence of 1.5 mM Mg^2+. […]

In the case of `N[C@H](CCCP(=O)(O)O)C(=O)O` [APV, D-2-amino-5-phosphono-valeric acid], the “peak amplitude of TFLLR-evoked current in presence of APV” value ([1]; 30 μM TFLLR, 50 μM APV) was 2.5±0.3 pA, the “effect on TFLLR-induced dendritic fluorescence increase” value ([1]; APV 50 μM) was “blocked” and the “effect on resting membrane potential of CA1 neurons” value (CA1 pyramidal cells) was 0.4±0.7 mV. For the same compound, the “effect on NMDA component of evoked EPSCs” value (synaptic NMDA receptors [2]) was “blocked”, the “effect on TFLLR-induced τ2” value (synaptic NMDA receptors [3]) was “eliminated” and the “effect on TFLLR potentiation of EPSP area” value [4] was “reversed”.

Source: patent US20080299109A1, “MECHANISM OF ASTRICYTE-NEURON SIGNALING” (Korea Institute of Science and Technology, priority 2007, published 2008)
